Measurements published in patent publication US5631222A, “Endothelin-antagonizing peptide” (Kyowa Hakko Kogyo Co., Ltd., priority 1993, dated 1997).
Positions of bridges follow the written chain, without caps; N, C: chain ends. Non-standard residues stand in square brackets, D forms with d. Residues, ends and D or L forms follow the SMILES beside them. NMeI = CC[C@H](C)[C@H](NC)C(=O)O; 2Thi = N[C@@H](Cc1cccs1)C(=O)O; Cha = N[C@@H](CC1CCCCC1)C(=O)O; Nva = CCC[C@H](N)C(=O)O

target: T1, endothelin receptor (Bos taurus, UniProt P28088); assay: Endothelin receptor-antagonizing activity: inhibition of 125I-endothelin-1 binding to bovine cerebellum membrane fraction; conditions: 125I-Endothelin-1, bovine cerebellum membrane fraction, 25° C. for 2 hours; read-out: IC50: Concentration causing 50% inhibition of endothelin1 binding
T1 construct: the suspension was used as a membrane fraction liquid; from tissue; host or cells: bovine cerebellum membrane fraction
T1 sequence (P28088 27-441): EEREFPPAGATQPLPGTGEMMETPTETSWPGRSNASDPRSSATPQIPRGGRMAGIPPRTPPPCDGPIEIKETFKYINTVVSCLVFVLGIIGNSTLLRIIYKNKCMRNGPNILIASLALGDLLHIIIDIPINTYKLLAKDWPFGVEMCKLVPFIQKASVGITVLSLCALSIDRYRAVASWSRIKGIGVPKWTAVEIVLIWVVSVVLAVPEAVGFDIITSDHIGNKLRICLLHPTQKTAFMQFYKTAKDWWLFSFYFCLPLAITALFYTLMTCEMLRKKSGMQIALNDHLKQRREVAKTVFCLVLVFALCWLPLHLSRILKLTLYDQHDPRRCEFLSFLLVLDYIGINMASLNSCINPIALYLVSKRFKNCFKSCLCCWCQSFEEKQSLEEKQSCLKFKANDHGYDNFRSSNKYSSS
Description: Bovine cerebellum tissue was homogenized at 4° C. by using POLYTRON (type PT10/35, manufactured by Kinematic Gmbh Co.) in a buffer solution A (1 mM NaHCO3, 5 mM ethylenediaminetetraacetic acid, 5 μg/ml leupeptin, 5 μg/ml pepstatin A, 40 μM phenylmethylsulfonyl fluoride, pH 8.3).
The obtained suspension was centrifuged for 10 minutes at 8,000 G and 4° C., and the resulting supernatant was centrifuged for 60 minutes at 40,000 G and 4° C. to obtain pellets. The obtained pellets were suspended in a buffer solution A and again centrifuged for 60 minutes at 40,000 G and 4° C. The resulting solid substance was prepared as a suspension containing 2 mg/ml of protein, and the suspension was used as a membrane fraction liquid. […] These mixtures were incubated at 25° C. for 2 hours, and then filtered with a GF/B glass filter (produced by Whatman Co.). […] The inhibition ratio against endothelin receptor binding activity was calculated according to the following equation:
Inhibition ratio (%)=(C-A/C-B)×100
B: Radioactivity in the presence of unlabelled endothelin-1
C: Radioactivity in the absence of both of the compound shown in Table 2 and unlabelled endothelin-1

| Compound | IC50 [nM] |
| --- | --- |
| CC[C@H](C)[C@H](NC(=O)[C@H](CC(=O)O)NC(=O)[C@H](CC(C)C)NC(=O)[C@H](Cc1c[nH]cn1)NC(=O)[C@H](C)NC(=O)[C@H](Cc1ccccc1)NC(=O)[C@H](Cc1ccc(O)cc1)NC(=O)[C@@H](NC(=O)[C@H](Cc1c[nH]c2ccccc12)NC(=O)[C@@H]1CC(=O)NCC(=O)N[C@@H](Cc2ccc(O)cc2)C(=O)N2CCC[C@H]2C(=O)N[C@@H](Cc2c[nH]c3ccccc23)C(=O)N[C@@H](Cc2c[nH]c3ccccc23)C(=O)N[C@@H](CC(N)=O)C(=O)N[C@@H](Cc2ccc(O)cc2)C(=O)N[C@@H](CCCNC(=N)N)C(=O)N1)C(C)C)C(=O)N[C@H](C(=O)N[C@@H](Cc1c[nH]c2ccccc12)C(=O)O)[C@@H](C)CC [Compound 52] (GYPWWNYRDWVYFAHLDIIW-OH; lactam N-9) | 19 |
| CCC[C@H](NC(=O)[C@@H](Cc1c[nH]c2ccccc12)NC(=O)[C@H](C)NC(=O)[C@H](Cc1ccccc1)NC(=O)[C@H](Cc1ccc(O)cc1)NC(=O)[C@@H](NC(=O)[C@H](Cc1c[nH]c2ccccc12)NC(=O)[C@H](CC(=O)O)NC(=O)[C@@H]1CCCN1C(=O)[C@H](C)NC(=O)[C@@H](NC(=O)CNC(=O)[C@H](Cc1c[nH]cn1)NC(=O)[C@H](Cc1c[nH]c2ccccc12)NC(=O)[C@H](CC(N)=O)NC(=O)CN)[C@@H](C)O)C(C)C)C(=O)N[C@@H](CCC(=O)O)C(=O)N[C@H](C(=O)N[C@@H](C(=O)N[C@@H](Cc1c[nH]c2ccccc12)C(=O)O)[C@H](C)CC)[C@@H](C)CC [Compound 44, HGlyAsnTrpHisGlyThrAlaProAspTrpValTyrPheAlaD-TrpNvaGluIleD-IleTrpOH] (H-GNWHGTAPDWVYFA[dW][Nva]EI[dI]W-OH) | 290 |
| CC[C@H](C)[C@H](NC(=O)[C@H](Cc1cccs1)NC(=O)[C@@H](NC(=O)[C@H](CC(C)C)NC(=O)[C@H](Cc1c[nH]cn1)NC(=O)[C@H](C)NC(=O)[C@H](Cc1ccccc1)NC(=O)[C@H](Cc1ccc(O)cc1)NC(=O)[C@@H](NC(=O)[C@H](Cc1c[nH]c2ccccc12)NC(=O)[C@@H]1CC(=O)NCC(=O)N[C@@H](CC(N)=O)C(=O)N[C@@H](Cc2c[nH]c3ccccc23)C(=O)N[C@@H](Cc2c[nH]cn2)C(=O)NCC(=O)N[C@@H]([C@@H](C)O)C(=O)N[C@@H](C)C(=O)N2CCC[C@H]2C(=O)N1)C(C)C)[C@@H](C)O)C(=O)N[C@@H](Cc1c[nH]c2ccccc12)C(=O)O [Compound 41] (GNWHGTAPDWVYFAHLT[2Thi]IW-OH; lactam N-9) | 2.5 |
| H-GNWHGTAPDWVYFAHLDIIF-OH [Compound 5] | 11 |
| CC[C@H](C)[C@H](NC(=O)[C@H](CC1CCCCC1)NC(=O)[C@@H](NC(=O)[C@H](CC(C)C)NC(=O)[C@H](Cc1c[nH]cn1)NC(=O)[C@H](C)NC(=O)[C@H](Cc1ccccc1)NC(=O)[C@H](Cc1ccc(O)cc1)NC(=O)[C@@H](NC(=O)[C@H](Cc1c[nH]c2ccccc12)NC(=O)[C@@H]1CSSC[C@H](N)C(=O)N[C@@H](CC(N)=O)C(=O)N[C@@H](Cc2c[nH]c3ccccc23)C(=O)N[C@@H](Cc2c[nH]cn2)C(=O)NCC(=O)N[C@@H]([C@@H](C)O)C(=O)N[C@@H](C)C(=O)N2CCC[C@H]2C(=O)N1)C(C)C)[C@@H](C)O)C(=O)N[C@@H](Cc1c[nH]c2ccccc12)C(=O)O [Compound 39] (H-CNWHGTAPCWVYFAHLT[Cha]IW-OH; disulfide 1-9) | 280 |
| CC[C@H](C)[C@H](NC(=O)[C@H](CC(=O)O)NC(=O)[C@H](CC(C)C)NC(=O)[C@H](Cc1c[nH]cn1)NC(=O)[C@H](C)NC(=O)[C@H](Cc1ccccc1)NC(=O)[C@H](Cc1ccc(O)cc1)NC(=O)[C@@H](NC(=O)[C@H](Cc1c[nH]c2ccccc12)NC(=O)[C@@H]1CC(=O)NCC(=O)N[C@@H](CO)C(=O)N[C@@H](C)C(=O)N[C@@H](C)C(=O)N[C@@H](C(C)C)C(=O)N[C@@H](Cc2ccc(O)cc2)C(=O)N[C@@H](Cc2ccccc2)C(=O)N1)C(C)C)C(=O)N[C@H](C(=O)N[C@@H](Cc1c[nH]c2ccccc12)C(=O)O)[C@@H](C)CC [Compound 53] (GSAAVYFDWVYFAHLDIIW-OH; lactam N-8) | 2.4 |
| H-GNWHGTAPDWVYFAHLDLIW-OH [Compound 16] | 5.4 |
| CC[C@H](C)[C@@H]1NC(=O)[C@H](Cc2ccccc2)NC(=O)CNC(=O)C[C@@H](C(=O)N[C@@H](Cc2c[nH]c3ccccc23)C(=O)N[C@H](C(=O)N[C@@H](Cc2ccc(O)cc2)C(=O)N[C@@H](Cc2ccccc2)C(=O)N[C@@H](C)C(=O)N[C@@H](Cc2c[nH]cn2)C(=O)N[C@@H](CC(C)C)C(=O)N[C@@H](CC(=O)O)C(=O)N[C@H](C(=O)N[C@H](C(=O)N[C@@H](Cc2c[nH]c3ccccc23)C(=O)O)[C@@H](C)CC)[C@@H](C)CC)C(C)C)NC(=O)[C@H](CC(N)=O)NC(=O)CNC(=O)[C@H](Cc2c[nH]c3ccccc23)NC(=O)CNC1=O [Compound 51] (GFIGWGNDWVYFAHLDIIW-OH; lactam N-8) | 3.3 |
| H-GNWHGTAPDWVYFAHLTMIW-OH [Compound 18] | 1.7 |
| CC[C@H](C)[C@H](NC(=O)[C@H](Cc1cccs1)NC(=O)[C@@H](NC(=O)[C@H](CC(C)C)NC(=O)[C@@H](Cc1c[nH]c2ccccc12)NC(=O)[C@H](C)NC(=O)[C@H](Cc1ccccc1)NC(=O)[C@H](Cc1ccc(O)cc1)NC(=O)[C@@H](NC(=O)[C@H](Cc1c[nH]c2ccccc12)NC(=O)[C@H](CC(=O)O)NC(=O)[C@@H]1CCCN1C(=O)[C@H](C)NC(=O)[C@@H](NC(=O)CNC(=O)[C@H](Cc1c[nH]cn1)NC(=O)[C@H](Cc1c[nH]c2ccccc12)NC(=O)[C@H](CC(N)=O)NC(=O)CN)[C@@H](C)O)C(C)C)[C@@H](C)O)C(=O)N[C@@H](Cc1c[nH]c2ccccc12)C(=O)O [Compound 28, HGlyAsnTrpHisGlyThrAlaProAspTrpValTyrPheAlaD-TrpLeuThrThiIleTrpOH] (H-GNWHGTAPDWVYFA[dW]LT[2Thi]IW-OH) | 89 |
| H-HGTAPDWVYFAHLDIIW-OH [Compound 9, HHisGlyThrAlaProAspTrpValTyrPheAlaHisLeuAspIleIleTrpOH] | 0.088 |
| CC[C@H](C)[C@H](NC(=O)[C@H](Cc1cccs1)NC(=O)[C@@H](NC(=O)[C@H](CC(C)C)NC(=O)[C@H](Cc1c[nH]cn1)NC(=O)[C@H](C)NC(=O)[C@H](Cc1ccccc1)NC(=O)[C@H](Cc1ccc(O)cc1)NC(=O)[C@@H]1CCCN1C(=O)[C@H](Cc1c[nH]c2ccccc12)NC(=O)[C@H](CC(=O)O)NC(=O)[C@@H]1CCCN1C(=O)[C@H](C)NC(=O)[C@@H](NC(=O)CNC(=O)[C@H](Cc1c[nH]cn1)NC(=O)[C@H](Cc1c[nH]c2ccccc12)NC(=O)[C@H](CC(N)=O)NC(=O)CN)[C@@H](C)O)[C@@H](C)O)C(=O)N[C@@H](Cc1c[nH]c2ccccc12)C(=O)O [Compound 48, HGlyAsnTrpHisGlyThrAlaProAspTrpProTyrPheAlaHisLeuThrThiIleTrpOH] (H-GNWHGTAPDWPYFAHLT[2Thi]IW-OH) | 5 |
| CC[C@H](C)[C@H](NC(=O)[C@H](Cc1cccs1)NC(=O)CNC(=O)[C@H](CC(C)C)NC(=O)[C@H](Cc1c[nH]cn1)NC(=O)[C@H](C)NC(=O)[C@H](Cc1ccccc1)NC(=O)[C@H](Cc1ccc(O)cc1)NC(=O)[C@@H](NC(=O)[C@H](Cc1c[nH]c2ccccc12)NC(=O)[C@H](CC(=O)O)NC(=O)[C@@H]1CCCN1C(=O)[C@H](C)NC(=O)[C@@H](NC(=O)CNC(=O)[C@H](Cc1c[nH]cn1)NC(=O)[C@H](Cc1c[nH]c2ccccc12)NC(=O)[C@H](CC(N)=O)NC(=O)CN)[C@@H](C)O)C(C)C)C(=O)N[C@@H](Cc1c[nH]c2ccccc12)C(=O)O [Compound 30, HGlyAsnTrpHisGlyThrAlaProAspTrpValTyrPheAlaHisLeuGlyThiIleTrpOH] (H-GNWHGTAPDWVYFAHLG[2Thi]IW-OH) | 170 |
| H-VYFSHLDIIW-OH [Compound w, H-Val-Tyr-Phe-Ser-His-Leu-Asp-Ile-Ile-Trp-OH, reference compound] | > 1000 |
| H-GNWHGTAPDWYFAHLDIIW-OH [Compound 10, HGlyAsnTrpHisGlyThrAlaProAspTrpTyrPheAlaHisLeuAspIleIleTrpOH] | 0.57 |
| H-WHGTAPDWVYFAHLDIIW-OH [Compound 8, HTrpHisGlyThrAlaProAspTrpValTyrPheAlaHisLeuAspIleIleTrpOH] | 0.076 |
| CC[C@H](C)[C@H](NC(=O)[C@H]([C@@H](C)CC)N(C)C(=O)[C@@H](NC(=O)[C@H](CC(C)C)NC(=O)[C@H](Cc1c[nH]cn1)NC(=O)[C@H](C)NC(=O)[C@H](Cc1ccccc1)NC(=O)[C@H](Cc1ccc(O)cc1)NC(=O)[C@@H](NC(=O)[C@H](Cc1c[nH]c2ccccc12)NC(=O)[C@H](CC(=O)O)NC(=O)[C@@H]1CCCN1C(=O)[C@H](C)NC(=O)[C@@H](NC(=O)CNC(=O)[C@H](Cc1c[nH]cn1)NC(=O)[C@H](Cc1c[nH]c2ccccc12)NC(=O)[C@H](CC(N)=O)NC(=O)CN)[C@@H](C)O)C(C)C)[C@@H](C)O)C(=O)N[C@@H](Cc1c[nH]c2ccccc12)C(=O)O [Compound 24, HGlyAsnTrpHisGlyThrAlaProAspTrpValTyrPheAlaHisLeuThrMeIleIleTrpOH] (H-GNWHGTAPDWVYFAHLT[NMeI]IW-OH) | 50 |
